From article PMC10343299, “S-Ethyl-Isothiocitrullin-Based Dipeptides and 1,2,4-Oxadiazole Pseudo-Dipeptides: Solid Phase Synthesis and Evaluation as NO Synthase Inhibitors” (Molecules, 2023)
Read-outs that look alike come from different tables or passages of the source.

Columns and labels:
INS-1 cells (nNOS) = assay: Glucose-induced insulin secretion; assay type: cell-based; settings: 5.6 mM glucose, no IL-1β, 1 h, compounds 500 µM to 5 mM, L-NAME 5 mM
Protocol: Indeed, pancreatic β-cells are known to constitutively express the nNOS isoform, which negatively modulates glucose-induced insulin secretion.
The insulin-secreting cell line INS-1 (a gift from Prof. C. Wolheim, Geneva, Switzerland) was cultured in RPMI-1640 supplemented with 10% FCS, 100 units/mL penicillin, 100 µg/mL streptomycin, 2 mM L-glutamine, 10 mM HEPES, 1 mM sodium pyruvate, and […] 2-mercaptoethanol, according to M. Asfari et al.’s method.
The functional effects of compounds were evaluated on INS-1 cells. Cells were preincubated for 1 h at 37 °C in a Krebs–Ringer bicarbonate buffer (108 mM NaCl, 1.19 mM KH2PO4, 4.74 mM KCl, 2.54 mM CaCl2, 1.19 mM MgSO4·7H2O, and 18 mM NaHCO3) containing 2 g/L BSA in the absence of glucose. After removal of the medium, the cells were stimulated for another hour at 37°C in the same buffer in the presence of 5.6 mM glucose and the presence of increasing concentrations of L-NAME or compounds (from 500 µM to 5 mM). At the end of the incubation period, the medium was collected, and the insulin was measured using an insulin high-range assay kit (CisBio, Codolet, France). Data are expressed as means ± SEM of the experiments (indicated in the result part).

mouse iNOS = molecular target: T1, mouse iNOS (Mus musculus, UniProt P29477); assay: NOS inhibition, oxyhemoglobin (hemoglobin capture) test, recombinant iNOS; assay type: biochemical; settings: recombinant enzyme, 20 µM arginine, triplicate, NI = <50% inhibition at 100 μM; for inhibition at 100 µM: read-out: IC50 (μM) iNOS (Mouse)
T1 construct: Full-length recombinant rat nNOS, mouse iNOS, bovine eNOS; made in house; host or cells: Escherichia coli
T1 sequence (P29477 1-1144): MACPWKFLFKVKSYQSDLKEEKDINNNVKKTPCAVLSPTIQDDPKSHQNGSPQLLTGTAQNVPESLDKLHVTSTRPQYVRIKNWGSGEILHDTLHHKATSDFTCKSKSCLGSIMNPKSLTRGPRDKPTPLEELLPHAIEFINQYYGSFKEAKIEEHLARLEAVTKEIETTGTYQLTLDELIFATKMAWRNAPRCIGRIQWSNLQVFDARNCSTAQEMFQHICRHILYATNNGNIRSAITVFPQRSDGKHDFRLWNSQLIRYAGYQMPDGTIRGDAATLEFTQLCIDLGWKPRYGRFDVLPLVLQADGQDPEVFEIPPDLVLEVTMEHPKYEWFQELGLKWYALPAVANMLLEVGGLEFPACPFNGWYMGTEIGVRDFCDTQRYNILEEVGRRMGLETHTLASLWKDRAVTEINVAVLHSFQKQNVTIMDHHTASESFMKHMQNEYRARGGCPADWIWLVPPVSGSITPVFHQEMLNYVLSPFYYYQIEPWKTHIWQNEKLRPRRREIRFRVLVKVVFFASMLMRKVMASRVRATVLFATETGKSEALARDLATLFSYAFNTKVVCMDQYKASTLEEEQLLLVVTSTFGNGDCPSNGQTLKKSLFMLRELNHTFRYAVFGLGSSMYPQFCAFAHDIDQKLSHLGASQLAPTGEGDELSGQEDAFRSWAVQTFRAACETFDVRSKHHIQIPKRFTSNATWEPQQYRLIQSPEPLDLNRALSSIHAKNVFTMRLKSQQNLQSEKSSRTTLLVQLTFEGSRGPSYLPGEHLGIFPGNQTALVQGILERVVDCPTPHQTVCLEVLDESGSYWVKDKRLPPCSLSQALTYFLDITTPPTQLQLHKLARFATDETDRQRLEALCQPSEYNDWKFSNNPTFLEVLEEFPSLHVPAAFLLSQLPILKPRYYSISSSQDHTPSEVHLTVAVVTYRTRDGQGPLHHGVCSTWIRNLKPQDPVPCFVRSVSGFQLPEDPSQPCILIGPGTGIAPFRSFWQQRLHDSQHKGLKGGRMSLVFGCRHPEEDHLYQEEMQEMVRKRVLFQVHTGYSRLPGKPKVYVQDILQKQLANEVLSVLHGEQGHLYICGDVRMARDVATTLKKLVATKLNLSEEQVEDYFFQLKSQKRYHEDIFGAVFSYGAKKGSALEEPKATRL
Protocol: (§1) The inhibitory effects of all compounds against the three recombinant NOSs (rat nNOS, mouse iNOS, and bovine eNOS) were evaluated in 96-well plates using the oxyhemoglobin test. A first screening at 100 and 10 μM was performed, and the IC50 values were measured for compounds showing more than 50% inhibition at 100 μM (Table 1 and Table 2).
(§2) Full-length recombinant rat nNOS, mouse iNOS, bovine eNOS, and the heme domains of rat brain nNOS and mouse iNOS were expressed in Escherichia coli and purified as described previously.
(§3) NOS catalytic activity was measured using the hemoglobin capture assay. The test was performed at 30 °C in 96-well microplates using a final volume of 200 µL. The assay mixture contained 100 µM NADPH, 10 µM BH4, 6 µM HbO2, 100 µM DTT, 5 µM FAD, 5 µM FMN, 10 µM (nNOS and eNOS), or 20 µM (iNOS) arginine, all in a 100 mM Hepes buffer, pH 7.5, and, for constitutive n- and e-NOS, 10 µg/mL calmodulin, and 1 mM CaCl2. The studied compounds were introduced as 2 μL of ×100 concentrated solutions in DMSO, and the control experiments were performed with DMSO or the buffer only. The kinetics of NO production were measured at 401 nm using an Infinite F500 microplate reader (Tecan, Singapore).

rat nNOS = molecular target: T2, rat nNOS (Rattus norvegicus, UniProt P29476); assay: NOS inhibition, oxyhemoglobin (hemoglobin capture) test, recombinant nNOS; assay type: biochemical; settings: for IC50: recombinant enzyme, 10 µM arginine, triplicate, NI = <50% inhibition at 100 μM
T2 construct: Full-length recombinant rat nNOS, mouse iNOS, bovine eNOS; made in house; host or cells: Escherichia coli
Protocol: as §1, §2, §3

bovine eNOS = molecular target: T3, bovine eNOS (Bos taurus, UniProt P29473); assay: NOS inhibition, oxyhemoglobin (hemoglobin capture) test, recombinant eNOS; assay type: biochemical; settings: recombinant enzyme, 10 µM arginine, triplicate, NI = <50% inhibition at 100 μM, read-out: IC50 (μM) eNOS (Bovine)
T3 construct: Full-length recombinant rat nNOS, mouse iNOS, bovine eNOS; made in house; host or cells: Escherichia coli

RAW 264.7 cells = assay: Cell viability, MTT assay; assay type: cell-based, murine
Protocol: Cell viability was evaluated in the murine macrophage RAW 264.7 cells using an MTT assay for compounds 18, 21, 26, and 30. This experiment was performed without or with LPS (1 µg/mL), which induces iNOS expression (Figure S1). […] Compound 30 only killed 20% of the cells at 500 μM (Figure S1A). In the presence of LPS (1 µg/mL), cell viability was reduced by 30% due to the inhibition by NO of key enzymes involved in cell metabolism (Figure S1B).
The macrophage cell line RAW 264.7 (a gift from Dr. A. Blangy, Montpellier, France) was cultured in Dulbecco’s Modified Eagle’s Medium (DMEM) supplemented with 10% FCS, 100 units/mL penicillin, 100 µg/mL streptomycin, and 2 mM L-glutamine.
Cellular NO production was measured using the Griess reagent (Sigma-Aldrich), which evaluates the nitrite content in culture media. Cellular toxicity was estimated by the MTT assay (Sigma-Aldrich) in RAW 264.7 cells after the induction (or not) of iNOS by LPS, according to the manufacturer’s recommendations.

[1] = molecular target: T4, oxygenase domain of iNOS (iNOSoxy) (Mus musculus, UniProt P29477); assay: UV-visible difference spectroscopy titration of iNOSoxy; assay type: binding; settings: UV/Vis difference spectroscopy, ± SD, three experiments; read-out: Apparent equilibrium constant Ks iNOSoxy
T4 construct: the oxygenase domain of nNOS (nNOSoxy) and iNOS (iNOSoxy); made in house; host or cells: Escherichia coli
T4 sequence (P29477 1-498 limits assumed): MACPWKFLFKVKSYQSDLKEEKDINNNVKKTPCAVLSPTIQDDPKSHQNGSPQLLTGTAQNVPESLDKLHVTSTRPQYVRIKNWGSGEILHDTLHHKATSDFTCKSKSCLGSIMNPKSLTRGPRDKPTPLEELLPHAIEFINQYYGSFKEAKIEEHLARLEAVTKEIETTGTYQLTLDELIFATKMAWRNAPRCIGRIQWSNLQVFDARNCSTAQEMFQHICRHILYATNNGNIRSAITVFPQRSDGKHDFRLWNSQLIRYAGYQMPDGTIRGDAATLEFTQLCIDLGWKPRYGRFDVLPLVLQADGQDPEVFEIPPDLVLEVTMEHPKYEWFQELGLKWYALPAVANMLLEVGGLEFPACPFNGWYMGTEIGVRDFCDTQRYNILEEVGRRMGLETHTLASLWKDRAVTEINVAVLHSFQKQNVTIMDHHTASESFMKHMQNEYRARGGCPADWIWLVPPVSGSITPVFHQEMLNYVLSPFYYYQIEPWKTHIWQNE
Description: (§4) We performed UV–visible difference spectroscopy to analyze the interaction mode of some inhibitors with the heme-active site of NOS [54]. We have studied the effects of dipeptide-like compounds 7, 17, 19, 23, and 27 and 1,2,4-oxadiazole 35 on the UV–visible spectra of the oxygenase domain of nNOS (nNOSoxy) and iNOS (iNOSoxy). As expected, when added stepwise to n- and iNOSoxy, all selected compounds elicited different spectra with a trough at ~425 nm and a peak at ~395 nm, similar to the substrate L-arginine. This profile is characteristic of type I interactions, meaning that they are bound in close proximity to the heme prosthetic group and shifted the spin state equilibrium to the pentacoordinated heme–Fe^III state. Double reverse plotting of the differences in absorbance between the peak at ~395 nm and valley at ~425 nm (ΔA395–425 nm) as a function of the concentration of the added compounds allowed calculating apparent binding constants (Ks) (Table 3). The reference inhibitor SEITU [55] tightly bound both NOS isoforms with high affinity but no selectivity. With the exception of the dipeptide-like 27 and the heterocyclic analog 35, which similarly interacted with both proteins, other compounds preferentially bound nNOSoxy over iNOSoxy with apparent affinities close to SEITU for this isoform.
as §2
(§5) This study was performed as previously described.

[2] = molecular target: T5, oxygenase domain of nNOS (nNOSoxy) (Rattus norvegicus, UniProt P29476); assay: UV-visible difference spectroscopy titration of nNOSoxy; assay type: binding; settings: UV/Vis difference spectroscopy, ± SD, three experiments; read-out: Apparent equilibrium constant Ks nNOSoxy
T5 construct: the oxygenase domain of nNOS (nNOSoxy) and iNOS (iNOSoxy); made in house; host or cells: Escherichia coli
Description: as §4, §2, §5

iNOS = test system: iNOS; design: method as in PMID 32027778; settings: Figure 1; previously described compounds; cited from earlier work
nNOS = test system: nNOS; design: method as in PMID 32027778; settings: Figure 1; previously described compounds; cited from earlier work
eNOS = test system: eNOS; design: method as in PMID 32027778; settings: Figure 1; previously described compounds; cited from earlier work

T3 sequence (P29473 whole entry): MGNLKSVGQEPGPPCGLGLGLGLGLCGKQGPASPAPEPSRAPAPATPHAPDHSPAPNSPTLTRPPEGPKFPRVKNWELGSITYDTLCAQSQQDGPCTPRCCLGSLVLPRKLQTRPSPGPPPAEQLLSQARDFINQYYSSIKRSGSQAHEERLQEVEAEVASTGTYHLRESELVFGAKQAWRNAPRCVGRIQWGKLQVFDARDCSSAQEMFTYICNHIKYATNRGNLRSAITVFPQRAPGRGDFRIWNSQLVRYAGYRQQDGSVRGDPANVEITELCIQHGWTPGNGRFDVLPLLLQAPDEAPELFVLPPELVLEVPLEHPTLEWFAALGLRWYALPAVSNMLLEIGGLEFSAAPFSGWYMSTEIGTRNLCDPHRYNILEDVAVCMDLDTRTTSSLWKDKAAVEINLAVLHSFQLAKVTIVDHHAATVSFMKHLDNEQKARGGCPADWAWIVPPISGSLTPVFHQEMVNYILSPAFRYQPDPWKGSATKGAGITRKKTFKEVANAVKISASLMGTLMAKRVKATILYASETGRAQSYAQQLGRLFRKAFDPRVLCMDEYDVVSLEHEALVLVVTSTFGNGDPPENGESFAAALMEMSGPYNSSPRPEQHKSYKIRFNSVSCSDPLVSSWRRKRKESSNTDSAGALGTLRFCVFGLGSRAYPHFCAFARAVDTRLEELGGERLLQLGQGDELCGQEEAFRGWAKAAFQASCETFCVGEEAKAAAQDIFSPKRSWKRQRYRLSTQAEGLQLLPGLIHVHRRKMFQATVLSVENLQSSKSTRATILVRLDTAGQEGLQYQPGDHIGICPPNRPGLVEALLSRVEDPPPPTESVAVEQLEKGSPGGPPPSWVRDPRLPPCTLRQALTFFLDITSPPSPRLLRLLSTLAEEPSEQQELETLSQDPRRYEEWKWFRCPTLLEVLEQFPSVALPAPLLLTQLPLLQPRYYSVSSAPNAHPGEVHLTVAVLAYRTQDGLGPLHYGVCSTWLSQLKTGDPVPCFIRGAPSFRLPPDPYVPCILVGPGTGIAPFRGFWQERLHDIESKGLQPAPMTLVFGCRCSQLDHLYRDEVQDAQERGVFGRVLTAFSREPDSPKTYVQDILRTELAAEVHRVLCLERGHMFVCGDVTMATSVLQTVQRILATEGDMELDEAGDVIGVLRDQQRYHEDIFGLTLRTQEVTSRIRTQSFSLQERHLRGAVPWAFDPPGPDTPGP
T5 sequence (P29476 1-720 limits assumed): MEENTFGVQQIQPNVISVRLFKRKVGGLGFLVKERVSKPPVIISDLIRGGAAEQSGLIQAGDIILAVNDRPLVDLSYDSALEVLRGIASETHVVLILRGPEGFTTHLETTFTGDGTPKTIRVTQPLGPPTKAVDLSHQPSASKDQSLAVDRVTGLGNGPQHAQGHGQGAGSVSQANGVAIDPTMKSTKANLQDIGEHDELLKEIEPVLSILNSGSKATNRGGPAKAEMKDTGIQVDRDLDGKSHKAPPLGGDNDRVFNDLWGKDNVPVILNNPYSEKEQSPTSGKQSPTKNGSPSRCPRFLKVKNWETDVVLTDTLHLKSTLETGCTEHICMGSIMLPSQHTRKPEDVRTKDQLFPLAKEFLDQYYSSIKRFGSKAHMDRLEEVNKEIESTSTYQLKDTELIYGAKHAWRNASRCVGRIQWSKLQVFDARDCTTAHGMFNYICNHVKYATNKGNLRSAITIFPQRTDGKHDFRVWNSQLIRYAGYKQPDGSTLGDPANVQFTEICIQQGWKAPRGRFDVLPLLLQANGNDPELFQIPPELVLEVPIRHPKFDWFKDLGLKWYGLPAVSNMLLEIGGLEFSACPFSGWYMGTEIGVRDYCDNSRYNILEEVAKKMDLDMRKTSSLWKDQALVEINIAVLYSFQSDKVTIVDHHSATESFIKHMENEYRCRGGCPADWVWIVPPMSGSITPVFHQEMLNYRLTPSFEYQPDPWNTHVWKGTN
T2 sequence (P29476 whole entry): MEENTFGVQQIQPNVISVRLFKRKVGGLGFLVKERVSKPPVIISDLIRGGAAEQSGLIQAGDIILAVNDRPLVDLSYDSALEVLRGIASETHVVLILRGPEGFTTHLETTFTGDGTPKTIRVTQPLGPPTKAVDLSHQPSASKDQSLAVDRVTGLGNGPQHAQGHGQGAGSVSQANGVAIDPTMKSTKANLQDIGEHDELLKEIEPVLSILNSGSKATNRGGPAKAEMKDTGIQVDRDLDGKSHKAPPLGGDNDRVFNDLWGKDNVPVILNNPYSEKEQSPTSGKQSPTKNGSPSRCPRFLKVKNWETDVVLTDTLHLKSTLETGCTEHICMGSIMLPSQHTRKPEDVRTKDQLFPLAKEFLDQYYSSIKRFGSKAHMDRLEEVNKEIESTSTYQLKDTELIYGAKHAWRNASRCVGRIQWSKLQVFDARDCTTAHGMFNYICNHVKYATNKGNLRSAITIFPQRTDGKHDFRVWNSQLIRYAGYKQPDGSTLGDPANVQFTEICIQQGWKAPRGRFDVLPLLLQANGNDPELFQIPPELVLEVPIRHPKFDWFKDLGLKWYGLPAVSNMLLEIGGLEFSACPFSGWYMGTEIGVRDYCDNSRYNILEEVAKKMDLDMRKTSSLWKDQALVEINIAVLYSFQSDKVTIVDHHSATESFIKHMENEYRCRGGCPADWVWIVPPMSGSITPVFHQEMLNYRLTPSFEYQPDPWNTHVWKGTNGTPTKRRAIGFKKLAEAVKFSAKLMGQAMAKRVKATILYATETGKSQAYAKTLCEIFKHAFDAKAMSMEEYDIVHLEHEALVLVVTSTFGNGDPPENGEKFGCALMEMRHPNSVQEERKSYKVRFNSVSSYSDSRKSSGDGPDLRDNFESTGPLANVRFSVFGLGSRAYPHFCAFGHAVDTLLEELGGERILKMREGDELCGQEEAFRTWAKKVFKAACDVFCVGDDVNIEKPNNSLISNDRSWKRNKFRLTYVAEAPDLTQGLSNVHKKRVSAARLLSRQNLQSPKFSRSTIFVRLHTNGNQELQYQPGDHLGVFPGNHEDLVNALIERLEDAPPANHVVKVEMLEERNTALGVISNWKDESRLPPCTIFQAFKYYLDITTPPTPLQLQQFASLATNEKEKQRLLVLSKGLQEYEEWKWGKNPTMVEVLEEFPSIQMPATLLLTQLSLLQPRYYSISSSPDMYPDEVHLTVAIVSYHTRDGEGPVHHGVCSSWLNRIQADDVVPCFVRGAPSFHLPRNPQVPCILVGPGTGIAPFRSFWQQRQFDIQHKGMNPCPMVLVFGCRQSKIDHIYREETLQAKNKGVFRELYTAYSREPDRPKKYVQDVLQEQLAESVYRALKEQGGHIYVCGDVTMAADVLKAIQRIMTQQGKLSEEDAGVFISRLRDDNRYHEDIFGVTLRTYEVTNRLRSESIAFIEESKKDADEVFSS

SMILES | IC50 (mouse iNOS; dipeptide-like series) [µM] | IC50 (rat nNOS; dipeptide-like series) [µM] | inhibition at 100 µM (bovine eNOS; dipeptide-like series) [%] | Kd [1] [µM] | Kd [2] [µM] | Effect on insulin secretion (INS-1 cells (nNOS)) | other results
CCSC(=N)NCCC[C@H](N)C(=O)N[C@H]1CCCN(Cc2cc([N+](=O)[O-])ccc2O)C1 [Compound 14] | 27.8 | 5.4 |  |  |  | dose-dependently stimulate glucose insulin secretion with better efficiency than L-NAME | 
CCSC(=N)NCCC[C@H](N)C(=O)N[C@H]1CCCN(Cc2ccc(C(F)(F)F)c(Cl)c2)C1 [Compound 18] |  | 6 | < 50 |  |  | dose-dependently stimulate glucose insulin secretion with better efficiency than L-NAME | inhibition at 100 µM (mouse iNOS; dipeptide-like series): < 50%; Reversal of LPS-induced reduction of cell viability (RAW 264.7 cells; RAW 264.7, LPS 1 µg/mL): none partially reversed the LPS effect; Effect on cell viability (MTT) (RAW 264.7 cells; RAW 264.7, absence of LPS, up to 100 μM): fully toxic
CCSC(=N)NCCC[C@H](N)c1nc(C)no1 [JMV3457] |  |  |  |  |  |  | IC50 (iNOS): 19 µM; IC50 (nNOS): 9.4 µM; IC50 (eNOS): 45 µM
CCSC(=N)NCCC[C@H](N)C(=O)NCCCN [JMV4246] |  |  |  |  |  |  | IC50 (iNOS): 48 µM; IC50 (nNOS): 6.6 µM; IC50 (eNOS): 52 µM
COC(=O)[C@@H](N)CCCNC(N)=N[N+](=O)[O-] [L-NAME, reference compound] |  |  |  |  |  | potentiated insulin release | 

Now from value to compound, other results behind:

IC50 (mouse iNOS; dipeptide-like series) [µM] | IC50 (rat nNOS; dipeptide-like series) [µM] | inhibition at 100 µM (bovine eNOS; dipeptide-like series) [%] | Kd [1] [µM] | Kd [2] [µM] | SMILES | Effect on insulin secretion (INS-1 cells (nNOS)) | other results
 | 7.7 | < 50 | 96 ± 36 | 5.2 ± 1.1 | CCSC(=N)NCCC[C@H](N)C(=O)N[C@H]1CCCN(Cc2ccccc2C(F)(F)F)C1 [Compound 19] |  | inhibition at 100 µM (mouse iNOS; dipeptide-like series): < 50%
11.9 | 12.7 | < 50 |  |  | CCSC(=N)NCCC[C@H](N)C(=O)N[C@H]1CCCN(Cc2ccc3ccccc3c2)C1 [Compound 22] | dose-dependently stimulate glucose insulin secretion with better efficiency than L-NAME | 
46.9 | 5.4 | < 50 | 92.5 ± 8.8 | 11.4 ± 3.8 | CCSC(=N)NCCC[C@H](N)C(=O)N[C@H]1CCCN(Cc2ccc(-c3ccccc3)cc2)C1 [Compound 23] |  | 
 |  |  | 42.4 ± 8.7 | 47.1 ± 13 | CCSC(=N)NCCC[C@H](N)c1nc(CCN(Cc2ccc3ccccc3c2)Cc2ccc3ccccc3c2)no1 [Compound 35] |  | IC50 (mouse iNOS; 1,2,4-oxadiazole series): 11.7 µM; inhibition at 100 µM (bovine eNOS; 1,2,4-oxadiazole series): < 50%; IC50 (rat nNOS; 1,2,4-oxadiazole series): 0.4 µM; Selectivity for nNOS against eNOS (rat nNOS; from IC50 values): > 250 fold; Selectivity for nNOS against iNOS (rat nNOS; from IC50 values): approximately 30 fold
